{"source": "patent US10004703B2", "about": "“Treatment of alzheimer's disease using compounds that reduce the activity of non-selective CA++ activated ATP-sensitive cation channels regulated by SUR1 channels” (Biogen Chesapeake LLC, priority 2006, dated 2018)", "key": {"[1]": {"assay": "Exemplary case: type 2 diabetic patient with AD given daily glibenclamide, metformin ceased", "assay_type": "in vivo, human", "details": "10 mg per day", "source_text": "The following exemplary descriptions illustrate ways to implement the methods and treatments disclosed herein.\nA type 2 diabetic […] presents to their family physician with complaints of forgetfulness and increasing confusion. They are being treated with metformin and diet controls for their Type 2 diabetes. The patient is diagnosed with AD upon referral to a geriatrician and upon clinical, laboratory and imaging investigations."}, "[2]": {"assay": "Exemplary case: AD patient given daily glibenclamide by monthly depot intramuscular injection, neurological testing", "assay_type": "in vivo, human", "details": "person with AD; 1.0 mg per day via monthly depot intramuscular injection", "source_text": "The following exemplary descriptions illustrate ways to implement the methods and treatments disclosed herein. […] A diagnosis of AD is made as other causes are ruled out. […] Depot injection is chosen in order to optimize patient compliance."}}, "data": [{"smiles": "COc1ccc(Cl)cc1C(=O)NCCc1ccc(S(=O)(=O)NC(=O)NC2CCCCC2)cc1", "note": "[glibenclamide, 5-chloro-N-[2-[4-(cyclohexylcarbamoylsulfamoyl)phenyl]ethyl]-2-methoxy-benzamide]", "values": [{"measurement": "Blood glucose measurements and HbA1C levels", "setting": "[1]", "result": "stable blood glucose measurements and HbA1C levels"}, {"measurement": "Episodes of forgetfulness", "setting": "[1]", "result": "episodes of forgetfulness are waning"}, {"measurement": "Neurological testing: AD symptoms", "setting": "[2]", "result": "stabilization of symptoms"}]}]}
